Source: ChEMBL document CHEMBL4414672, “Synthesis of certain benzothieno[3,2-d]pyrimidine derivatives as a selective SIRT2 inhibitors” (Eur J Med Chem, 2020)

Key:
Assay type in all cases: functional
[1] = system: CCRF-CEM; test: Growth inhibition of human CCRF-CEM cells at 10^-5 M incubated for 48 hrs by sulforhodamine B assay; details: read-out: GI
[2] = system: HL-60(TB); test: Growth inhibition of human HL-60(TB) cells at 10^-5 M incubated for 48 hrs by sulforhodamine B assay; details: HL-60, 48 h, read-out: GI
[3] = system: MOLT-4; test: Growth inhibition of human MOLT4 cells at 10^-5 M incubated for 48 hrs by sulforhodamine B assay; details: MOLT-4, 48 h, read-out: GI
[4] = system: SR; test: Growth inhibition of human SR cells at 10^-5 M incubated for 48 hrs by sulforhodamine B assay; details: read-out: GI
[5] = system: A549; test: Growth inhibition of human A549/ATCC cells at 10^-5 M incubated for 48 hrs by sulforhodamine B assay; details: A549, 48 h, read-out: GI
[6] = system: NCI-H23; test: Growth inhibition of human NCI-H23 cells at 10^-5 M incubated for 48 hrs by sulforhodamine B assay; details: NCI-H23, 48 h, read-out: GI
[7] = system: NCI-H322M; test: Growth inhibition of human NCI-H322M cells at 10^-5 M incubated for 48 hrs by sulforhodamine B assay; details: read-out: GI
[8] = system: NCI-H460; test: Growth inhibition of human NCI-H460 cells at 10^-5 M incubated for 48 hrs by sulforhodamine B assay; details: NCI-H460, 48 h, read-out: GI
[9] = system: NCI-H522; test: Growth inhibition of human NCI-H522 cells at 10^-5 M incubated for 48 hrs by sulforhodamine B assay; details: NCI-H522, 48 h, read-out: GI
[10] = system: HCT-116; test: Growth inhibition of human HCT116 cells at 10^-5 M incubated for 48 hrs by sulforhodamine B assay; details: HCT-116, 48 h, read-out: GI
[11] = system: HCT-15; test: Growth inhibition of human HCT15 cells at 10^-5 M incubated for 48 hrs by sulforhodamine B assay; details: HCT-15, 48 h, read-out: GI
[12] = system: SW-620; test: Growth inhibition of human SW620 cells at 10^-5 M incubated for 48 hrs by sulforhodamine B assay; details: SW-620, 48 h, read-out: GI
[13] = system: SF-268; test: Growth inhibition of human SF268 cells at 10^-5 M incubated for 48 hrs by sulforhodamine B assay; details: SF-268, 48 h, read-out: GI
[14] = system: SF-295; test: Growth inhibition of human SF295 cells at 10^-5 M incubated for 48 hrs by sulforhodamine B assay; details: SF-295, 48 h, read-out: GI
[15] = system: SNB-19; test: Growth inhibition of human SNB19 cells at 10^-5 M incubated for 48 hrs by sulforhodamine B assay; details: SNB-19, 48 h, read-out: GI
[16] = system: SNB-75; test: Growth inhibition of human SNB75 cells at 10^-5 M incubated for 48 hrs by sulforhodamine B assay; details: SNB-75, 48 h, read-out: GI
[17] = system: LOX IMVI; test: Growth inhibition of human LOXIMVI cells at 10^-5 M incubated for 48 hrs by sulforhodamine B assay; details: read-out: GI
[18] = system: Malme-3M; test: Growth inhibition of human MALME-3M cells at 10^-5 M incubated for 48 hrs by sulforhodamine B assay; details: read-out: GI
[19] = system: M14; test: Growth inhibition of human M14 cells at 10^-5 M incubated for 48 hrs by sulforhodamine B assay; details: M14, 48 h, read-out: GI
[20] = system: SK-MEL-28; test: Growth inhibition of human SK-MEL-28 cells at 10^-5 M incubated for 48 hrs by sulforhodamine B assay; details: SK-MEL-28, 48 h, read-out: GI
[21] = system: SK-MEL-5; test: Growth inhibition of human SK-MEL-5 cells at 10^-5 M incubated for 48 hrs by sulforhodamine B assay; details: SK-MEL-5, 48 h, read-out: GI
[22] = system: UACC-62; test: Growth inhibition of human UACC62 cells at 10^-5 M incubated for 48 hrs by sulforhodamine B assay; details: UACC-62, 48 h, read-out: GI
[23] = system: IGROV-1; test: Growth inhibition of human IGROV1 cells at 10^-5 M incubated for 48 hrs by sulforhodamine B assay; details: IGROV-1, 48 h, read-out: GI
[24] = system: OVCAR-3; test: Growth inhibition of human OVCAR3 cells at 10^-5 M incubated for 48 hrs by sulforhodamine B assay; details: OVCAR-3, 48 h, read-out: GI
[25] = system: OVCAR-5; test: Growth inhibition of human OVCAR5 cells at 10^-5 M incubated for 48 hrs by sulforhodamine B assay; details: OVCAR-5, 48 h, read-out: GI
[26] = system: OVCAR-8; test: Growth inhibition of human OVCAR8 cells at 10^-5 M incubated for 48 hrs by sulforhodamine B assay; details: OVCAR-8, 48 h, read-out: GI
[27] = system: NCI/ADR-RES; test: Growth inhibition of human NCI/ADR-RES cells at 10^-5 M incubated for 48 hrs by sulforhodamine B assay; details: read-out: GI
[28] = system: SK-OV-3; test: Growth inhibition of human SKOV3 cells at 10^-5 M incubated for 48 hrs by sulforhodamine B assay; details: SK-OV-3, 48 h, read-out: GI
[29] = system: 786-0; test: Growth inhibition of human 786-0 cells at 10^-5 M incubated for 48 hrs by sulforhodamine B assay; details: 786-0, 48 h, read-out: GI
[30] = system: A498; test: Growth inhibition of human A498 cells at 10^-5 M incubated for 48 hrs by sulforhodamine B assay; details: A498, 48 h, read-out: GI
[31] = system: ACHN; test: Growth inhibition of human ACHN cells at 10^-5 M incubated for 48 hrs by sulforhodamine B assay; details: read-out: GI
[32] = system: RXF 393; test: Growth inhibition of human RXF393 cells at 10^-5 M incubated for 48 hrs by sulforhodamine B assay; details: RXF 393, 48 h, read-out: GI
[33] = system: SN12C; test: Growth inhibition of human SN12C cells at 10^-5 M incubated for 48 hrs by sulforhodamine B assay; details: read-out: GI
[34] = system: TK-10; test: Growth inhibition of human TK10 cells at 10^-5 M incubated for 48 hrs by sulforhodamine B assay; details: TK-10, 48 h, read-out: GI
[35] = system: DU-145; test: Growth inhibition of human DU145 cells at 10^-5 M incubated for 48 hrs by sulforhodamine B assay; details: DU-145, 48 h, read-out: GI
[36] = system: MCF7; test: Growth inhibition of human MCF7 cells at 10^-5 M incubated for 48 hrs by sulforhodamine B assay; details: MCF7, 48 h, read-out: GI
[37] = system: MDA-MB-231; test: Growth inhibition of human MDA-MB-231 cells at 10^-5 M incubated for 48 hrs by sulforhodamine B assay; details: MDA-MB-231, 48 h, read-out: GI
[38] = system: Hs-578T; test: Growth inhibition of human Hs 578T cells at 10^-5 M incubated for 48 hrs by sulforhodamine B assay; details: read-out: GI
[39] = system: T47D; test: Growth inhibition of human T47D cells at 10^-5 M incubated for 48 hrs by sulforhodamine B assay; details: read-out: GI

Structure (SMILES)	inhibition of growth at 10 µM [1]	inhibition of growth at 10 µM [2]	inhibition of growth at 10 µM [3]	inhibition of growth at 10 µM [4]	inhibition of growth at 10 µM [5]	inhibition of growth at 10 µM [6]	inhibition of growth at 10 µM [7]	inhibition of growth at 10 µM [8]	inhibition of growth at 10 µM [9]	inhibition of growth at 10 µM [10]	inhibition of growth at 10 µM [11]	inhibition of growth at 10 µM [12]	inhibition of growth at 10 µM [13]	inhibition of growth at 10 µM [14]	inhibition of growth at 10 µM [15]	inhibition of growth at 10 µM [16]	inhibition of growth at 10 µM [17]	inhibition of growth at 10 µM [18]	inhibition of growth at 10 µM [19]	inhibition of growth at 10 µM [20]	other results
O=C1CSC2=Nc3c(sc4ccc(Cl)cc34)C(c3ccc4ccccc4c3)N12 (stereo not drawn)	-4.04%	-2.82%	13.7%	15.4%	4.93%	14.1%	6.48%	-1.49%	1.87%	-7.67%	1.72%	-3.91%	10.3%	-4.03%	-1.93%	16.8%	9.15%	4.51%	6.91%	-15%	inhibition of growth at 10 µM [21]: 2.92%; inhibition of growth at 10 µM [22]: 15.7%; inhibition of growth at 10 µM [23]: 10.4%; inhibition of growth at 10 µM [24]: -0.24%; inhibition of growth at 10 µM [25]: 1.49%; inhibition of growth at 10 µM [26]: 3.28%; inhibition of growth at 10 µM [27]: -1.46%; inhibition of growth at 10 µM [28]: 10.3%; inhibition of growth at 10 µM [29]: 2.84%; inhibition of growth at 10 µM [30]: 20%; inhibition of growth at 10 µM [31]: 7.81%; inhibition of growth at 10 µM [32]: -5.09%; inhibition of growth at 10 µM [33]: 9.96%; inhibition of growth at 10 µM [34]: -19.4%; inhibition of growth at 10 µM [35]: -8.09%; inhibition of growth at 10 µM [36]: 27.3%; inhibition of growth at 10 µM [37]: 19.7%; inhibition of growth at 10 µM [38]: -0.18%; inhibition of growth at 10 µM [39]: 15.7%
O=C1/C(=C\c2cccc([N+](=O)[O-])c2)Sc2ccc(Cl)cc21	-0.32%	-10.8%	2.66%	54.8%	-6.89%	16.7%	4.18%	-5.14%	25.8%	45.9%	6.13%	2.49%	7.22%	-3.16%	-6.12%	12.3%	8.68%	22.4%	4.61%	-11.7%	inhibition of growth at 10 µM [21]: 8.13%; inhibition of growth at 10 µM [22]: 29.5%; inhibition of growth at 10 µM [23]: 19.9%; inhibition of growth at 10 µM [24]: -2.4%; inhibition of growth at 10 µM [25]: -1.89%; inhibition of growth at 10 µM [26]: 0.87%; inhibition of growth at 10 µM [27]: 7.92%; inhibition of growth at 10 µM [28]: 5.38%; inhibition of growth at 10 µM [29]: -1.44%; inhibition of growth at 10 µM [30]: 11.5%; inhibition of growth at 10 µM [31]: 27%; inhibition of growth at 10 µM [32]: 15.7%; inhibition of growth at 10 µM [33]: -12.1%; inhibition of growth at 10 µM [34]: -12.1%; inhibition of growth at 10 µM [35]: -3.94%; inhibition of growth at 10 µM [36]: 22.4%; inhibition of growth at 10 µM [37]: 9.23%; inhibition of growth at 10 µM [38]: -8.12%; inhibition of growth at 10 µM [39]: 13.1%
